Calls of active or inactive are those of the source. No cut-off for these calls is given here. Starred links: 1 amine or outer side, 2 acyl side, 3 side chain; linkers in the order of their positions; H or OH if unused. Positions of bridges follow the written chain, without caps; N, C: chain ends. Non-standard residues stand in square brackets, D forms with d. Residues, ends and D or L forms follow the SMILES beside them. NMehTyr = CN[C@@H](CCc1ccc(O)cc1)C(=O)O; X1 = NC(=O)N[C@H](CCCCN[*:1])C(=O)[*:2]; hTyr = N[C@@H](CCc1ccc(O)cc1)C(=O)O; NMeA = CN[C@@H](C)C(=O)O; CO = O=C([*:1])[*:2]
Legend:
[1] = target: T1, Carboxypeptidase A1 (Homo sapiens, UniProt P15085); experiment: Inhibition of carboxypeptidase A (unknown origin) assessed as reduction in degradation of N-(4-methoxyphenylazoformyl)-Phe-OH using N-(4-methoxyphenylazoformyl)-Phe-OH as substrate
T1 sequence (P15085 whole entry): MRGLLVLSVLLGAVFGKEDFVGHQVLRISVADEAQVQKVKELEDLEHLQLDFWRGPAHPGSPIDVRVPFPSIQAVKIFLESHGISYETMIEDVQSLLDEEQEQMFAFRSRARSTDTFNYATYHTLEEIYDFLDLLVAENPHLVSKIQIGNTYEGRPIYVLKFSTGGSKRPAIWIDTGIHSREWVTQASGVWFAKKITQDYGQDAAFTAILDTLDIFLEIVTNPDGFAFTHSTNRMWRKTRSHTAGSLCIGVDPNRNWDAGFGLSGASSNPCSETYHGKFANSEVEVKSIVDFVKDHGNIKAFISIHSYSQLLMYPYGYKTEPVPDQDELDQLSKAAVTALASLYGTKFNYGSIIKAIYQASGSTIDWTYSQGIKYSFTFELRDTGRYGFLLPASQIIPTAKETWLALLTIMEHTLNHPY

[2] = target: T2, Carboxypeptidase A1 (Homo sapiens) (UniProt P15085); experiment: Inhibition of carboxypeptidase A (unknown origin) assessed as reduction in degradation of N-(4-methoxyphenylazoformyl)-Phe-OH at > 10 uM using N-(4-methoxyphenylazoformyl)-Phe-OH as substrate; conditions: dose microM >10
T2 sequence (whole entry): T1 sequence (P15085 whole entry)

[3] = target: T1, Carboxypeptidase A1; experiment: Inhibition of carboxypeptidase A (unknown origin)
[4] = target: T1, Carboxypeptidase A1; experiment: Inhibition of carboxypeptidase A (unknown origin) assessed as reduction in hydrolysis of hippuryl-L-phenylalanine using hippuryl-L-phenylalanine as substrate
[5] = target: T3, Carboxypeptidase A1 (Bos taurus, UniProt P00730); experiment: Inhibition of carboxypeptidase A in bovine pancreas assessed as reduction in hydrolysis of hippuryl-L-phenylalanine using hippuryl-L-phenylalanine as substrate measured after 2 hrs; format: tissue-based
T3 sequence (P00730 whole entry): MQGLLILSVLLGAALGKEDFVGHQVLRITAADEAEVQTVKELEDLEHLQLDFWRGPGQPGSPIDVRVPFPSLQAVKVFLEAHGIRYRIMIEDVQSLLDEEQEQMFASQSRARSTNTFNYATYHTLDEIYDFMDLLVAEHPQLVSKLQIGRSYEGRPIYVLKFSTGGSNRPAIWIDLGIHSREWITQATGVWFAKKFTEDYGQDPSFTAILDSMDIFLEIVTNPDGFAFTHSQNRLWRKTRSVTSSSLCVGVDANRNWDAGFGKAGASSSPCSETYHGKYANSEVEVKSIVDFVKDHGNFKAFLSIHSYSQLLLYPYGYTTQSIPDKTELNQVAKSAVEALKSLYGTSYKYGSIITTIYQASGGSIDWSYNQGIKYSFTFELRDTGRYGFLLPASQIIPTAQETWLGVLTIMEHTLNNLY

Row | SMILES | IC50 [1] [µM] | other results
1 | CC(C)[C@@H]1NC(=O)[C@H](NC(N)=O)CCCCNC(=O)[C@H](Cc2ccccc2)NC(=O)[C@H](C)N(C)C(=O)[C@H](CCc2ccc(O)cc2)NC1=O (cyclo(F[X1]V[hTyr][NMeA])) | 6.74 | –
2 | CC[C@H](C)[C@@H]1NC(=O)[C@H](CCc2ccc(O)cc2)N(C)C(=O)[C@H](CCc2ccc(O)cc2)NC(=O)[C@H](C(C)C)NC(=O)[C@H](NC(=O)N[C@@H](CCCNC(=N)N)C(=O)O)CCCCNC1=O [ANABAENOPEPTIN 908] ({Arg-CO}-[dK]V[hTyr][NMehTyr]I; lactam 1-C) | > 11 | inhibition [2]: Active; IC50 [3]: > 22 µM
3 | CC(C)[C@@H]1NC(=O)[C@H](NC(=O)N[C@@H](CCCNC(=N)N)C(=O)O)CCCCNC(=O)[C@H](Cc2ccccc2)NC(=O)[C@H](C)N(C)C(=O)[C@H](CCc2ccc(O)cc2)NC1=O [ANABAENOPEPTIN B] ({Arg-CO}-[dK]V[hTyr][NMeA]F; lactam 1-C) | > 24 | –
4 | CC[C@H](C)[C@@H]1NC(=O)[C@H](NC(=O)N[C@@H](CCCNC(=N)N)C(=O)O)CCCCNC(=O)[C@H](Cc2ccccc2)NC(=O)[C@H](C)N(C)C(=O)[C@H](CCc2ccc(O)cc2)NC1=O [ANABAENOPEPTIN F] ({Arg-CO}-[dK]I[hTyr][NMeA]F; lactam 1-C) | > 24 | –
5 | CC[C@H](C)[C@@H]1NC(=O)[C@H](NC(=O)N[C@@H](Cc2ccc(O)cc2)C(=O)O)CCCCNC(=O)[C@H]([C@@H](C)CC)NC(=O)[C@H](CCc2ccc(O)cc2)N(C)C(=O)[C@H](CCc2ccc(O)cc2)NC1=O [ANABAENOPEPTIN G] ({Tyr-CO}-[dK]I[hTyr][NMehTyr]I; lactam 1-C) | – | IC50 [4]: 0.002 µM
6 | CC[C@H](C)[C@@H]1NC(=O)[C@H](NC(=O)N[C@@H](CCCNC(=N)N)C(=O)O)CCCCNC(=O)[C@H]([C@@H](C)CC)NC(=O)[C@H](CCc2ccc(O)cc2)N(C)C(=O)[C@H](CCc2ccc(O)cc2)NC1=O [ANABAENOPEPTIN H] ({Arg-CO}-[dK]I[hTyr][NMehTyr]I; lactam 1-C) | 10.2 | –
7 | CC[C@H](C)[C@H](NC(=O)N[C@@H]1CCCCNC(=O)[C@H]([C@@H](C)CC)NC(=O)[C@H](CCc2ccc(O)cc2)N(C)C(=O)[C@H](CCc2ccc(O)cc2)NC(=O)[C@H](C(C)C)NC1=O)C(=O)O [ANABAENOPEPTIN T] ({Ile-CO}-[dK]V[hTyr][NMehTyr]I; lactam 1-C) | – | IC50 [5]: 2.3 µM

Source: ChEMBL document CHEMBL4715762, “Discovery of anabaenopeptin 679 from freshwater algal bloom material: Insights into the structure-activity relationship of anabaenopeptin protease inhibitors” (Bioorg Med Chem Lett, 2016)
